Experimental data taken from patent US20070117743A1, “New antitumoral compounds” (priority 2003, published 2007).

How the values were obtained:
Format in all cases: cell-based, human
K-562 = assay: SRB colorimetric assay of cell growth and viability, K-562; details: 48 hours exposure
DU-145 = assay: SRB colorimetric assay of cell growth and viability, DU-145; details: 48 hours exposure
SK-BR-3 = assay: SRB colorimetric assay of cell growth and viability, SK-BR-3; details: 48 hours exposure
LoVo-Dox = assay: SRB colorimetric assay of cell growth and viability, LoVo-Dox; details: 48 hours exposure
Outline: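 After 48 hours continuous exposure to samples spanning 10 to 10^−8 μg/mL, biomass was quantified by sulforhodamine B staining of TCA-fixed cells (OD 490 nm). Cells, 5×10^3 per well in RPMI 1640 10% FBS, had attached 18 hours first; GI, TGI and LC derived from triplicate wells.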

SK-MEL-28 = assay: SRB colorimetric assay of cell growth and viability, SK-MEL-28; details: 48 hours exposure
LoVo = assay: SRB colorimetric assay of cell growth and viability, LoVo; details: 48 hours exposure
PANC-1 = assay: SRB colorimetric assay of cell growth and viability, PANC-1; details: 48 hours exposure
IGROV-ET = assay: SRB colorimetric assay of cell growth and viability, IGROV-ET; details: 48 hours exposure
IGROV-1 = assay: SRB colorimetric assay of cell growth and viability, IGROV-1; details: 48 hours exposure
SK-OV-3 = assay: SRB colorimetric assay of cell growth and viability, SK-OV-3; details: 48 hours exposure
Description: (§1) The finality of this assay is to interrupt the growth of a “in vitro” tumor cell culture by means a continued exhibition of the cells to the sample to be testing.
(§2) A colorimetric type of assay, using sulforhodamine B (SRB) reaction has been adapted for a quantitative measurement of cell growth and viability [following the technique described by Philip Skehan, et al. (1990), New colorimetric cytotoxicity assay for anticancer drug screening, J. Natl. Cancer Inst., 82:1107-1112].
(§3) This form of the assay employs 96 well cell culture microplates of 9 mm diameter (Faircloth, 1988; Mosmann, 1983). Most of the cell lines are obtained from American Type Culture Collection (ATCC) derived from different human cancer types.
(§4) Cells are maintained in RPMI 1640 10% FBS, supplemented with 0.1 g/l penicillin and 0.1 g/l streptomycin sulfate and then incubated at 37° C., 5% CO2 and 98% humidity. For the experiments, cells were harvested from subconfluent cultures using trypsin and resuspended in fresh medium before plating.
(§5) Cells are seeded in 96 well microtiter plates, at 5×10^3 cells per well in aliquots of 195 μL medium, and they are allowed to attach to the plate surface by growing in drug free medium for 18 hours. Afterward, samples are added in aliquots of 5 μL in a ranging from 10 to 10^−8 μg/mL, dissolved in DMSO:EtOH:PBS (0.5:0.5:99). After 48 hours exposure, the antitumor effect are measured by the SRB methodology: cells are fixed by adding 50 μL of cold 50% (wt/vol) trichloroacetic acid (TCA) and incubating for 60 minutes at 4° C. Plates are washed with deionized water and dried. One hundred μL of SRB solution (0.4% wt/vol in 1% acetic acid) is added to each microtiter well and incubated for 10 minutes at room temperature. Unbound SRB is removed by washing with 1% acetic acid. Plates are air dried and bound stain is solubilized with Tris buffer. Optical densities are read on a automated spectrophotometric plate reader at a single wavelength of 490 nm.
(§6) The values for mean+/− SD of data from triplicate wells are calculated. Some parameters for cellular responses can be calculated: GI=growth inhibition, TGI=total growth inhibition (cytostatic effect) and LC=cell killing (cytotoxic effect).

A-549 = assay: SRB colorimetric assay of cell growth and viability, A-549; details: 48 hours exposure
[1] = SRB colorimetric assay of cell growth and viability, HMEC-1; details: human, HMEC-1 cells; 48 hours exposure; read-out: LC50 H-MEC-1
Description: as §1, §2, §3, §4
as §5, with “Unbound SRB is removed by washing with 1% acetic acid. Plates are air dried and bound stain is solubilized with Tris buffer.” left out
as §6

HMEC-1 = assay: as above; details: 48 hours exposure
Description: as §1, §2, §3, §4
as §5, with “Unbound SRB is removed by washing with 1% acetic acid. Plates are air dried and bound stain is solubilized with Tris buffer.” left out
as §6

HT-29 = assay: SRB colorimetric assay of cell growth and viability, HT-29; details: 48 hours exposure
LNCaP = assay: SRB colorimetric assay of cell growth and viability, LNCaP; details: 48 hours exposure

C/C=C1\NC(=O)[C@H](Cc2ccccc2)NC(=O)[C@@H](C(C)C)NC(=O)[C@@H]([C@@H](C)CC)NC(=O)[C@H](NC(=O)[C@H](NC(=O)[C@H](CCCCN)NC(=O)[C@H]2CCCN2C(=O)[C@H](NC(=O)[C@@H](NC(=O)[C@@H](NC(=O)[C@H](NC(=O)CCCC(C)C)C(C)C)[C@@H](C)O)C(C)C)C(C)C)[C@@H](C)CC)[C@@H](C)OC(=O)[C@H](C(C)C)NC1=O [Compound 5, [Lys^8]-KF]
GI50 (K-562): 771 nM | TGI K-562 (K-562): 1.65E−06 Molar | CC50 (K-562; read-out: LC50 K-562): 3.55 µM | GI50 (DU-145): 18.1 nM | LC50 (concentration causing 50% net cell kill) (DU-145): 56.9 nM | TGI DU-145 (DU-145): 3.20E−08 Molar | GI50 (SK-BR-3): 169 nM | LC50 (SK-BR-3): 554 nM | TGI SK-BR-3 (SK-BR-3): 3.06E−07 Molar | GI50 (LoVo-Dox): 162 nM | TGI LOVO-DOX (LoVo-Dox): 2.98E−07 Molar | CC50 (LoVo-Dox; read-out: LC50 LOVO-DOX): 552 nM | GI50 (SK-MEL-28): 811 nM | TGI MEL-28 (SK-MEL-28): 1.87E−06 Molar | CC50 (SK-MEL-28; read-out: LC50 MEL-28): 4.3 µM | GI50 (LoVo): 155 nM | TGI LOVO (LoVo): 2.71E−07 Molar | CC50 (LoVo; read-out: LC50 LOVO): 478 nM | GI50 (PANC-1): 1140 nM | TGI PANC-1 (PANC-1): 2.37E−06 Molar | CC50 (PANC-1; read-out: LC50 PANC-1): 4.92 µM | GI50 (IGROV-ET): 240 nM | TGI IGROV-ET (IGROV-ET): 4.88E−07 Molar | CC50 (IGROV-ET; read-out: LC50 IGROV-ET): 2830 nM | GI50 (IGROV-1): 183 nM | LC50 (concentration causing 50% net cell killing) (IGROV-1): 1230 nM | TGI IGROV (IGROV-1): 3.71E−07 Molar | TGI SKOV-3 (SK-OV-3): 4.08E−07 Molar | GI50 (SK-OV-3; read-out: GI50 SKOV-3): 196 nM | CC50 (SK-OV-3; read-out: LC50 SKOV-3): 1490 nM | TGI A-549 (A-549): 2.75E−07 Molar | GI50 (A-549; read-out: GI50 A-549): 129 nM | CC50 (A-549; read-out: LC50 A-549): 582 nM | CC50 at 48 h [1]: 44.6 nM | TGI H-MEC-1 (HMEC-1): 2.63E−08 Molar | GI50 (HMEC-1; read-out: GI50 H-MEC-1): 15.6 nM | TGI HT-29 (HT-29): 2.81E−07 Molar | GI50 (HT-29; read-out: GI50 HT-29): 158 nM | CC50 (HT-29; read-out: LC50 HT-29): 498 nM | TGI LN-caP (LNCaP): 2.61E−08 Molar | GI50 (LNCaP; read-out: GI50 LN-caP): 14.2 nM | CC50 (LNCaP; read-out: LC50 LN-caP): 47.9 nM
